Here are results for nine compounds from PubChem BioAssay AID743115 (Vanderbilt Specialized Chemistry Center, 2013).

Calls of active or inactive are those of the source.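 How the source made its calls: active means response above 60% of the acetylcholine maximum at the M5 muscarinic receptor, read as positive allosteric modulation; inactive means the rest.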

Broadly, the EC50 is the concentration at which the effect is half-maximal.

The assay deals with Muscarinic acetylcholine receptor M3 (Homo sapiens) (UniProt P20309). Put plainly: ACh potentiation at muscarinic M3 subtype – cell-based, CHO-K1 hM3, calcium flux, ACh EC20, selectivity assay for M5 PAM project, dose response (AID 743115). The conditions noted are these: CHO-K1 hM3, calcium flux Fluo-4, ACh EC20 potentiation; for % ACh max response: at 30 µM (top of the series). A general note: Calcium assays in cells follow changes in intracellular calcium, usually with a dye or a luminescent sensor.
Muscarinic acetylcholine receptor M3 (Homo sapiens), sequence (P20309 whole entry, looked up): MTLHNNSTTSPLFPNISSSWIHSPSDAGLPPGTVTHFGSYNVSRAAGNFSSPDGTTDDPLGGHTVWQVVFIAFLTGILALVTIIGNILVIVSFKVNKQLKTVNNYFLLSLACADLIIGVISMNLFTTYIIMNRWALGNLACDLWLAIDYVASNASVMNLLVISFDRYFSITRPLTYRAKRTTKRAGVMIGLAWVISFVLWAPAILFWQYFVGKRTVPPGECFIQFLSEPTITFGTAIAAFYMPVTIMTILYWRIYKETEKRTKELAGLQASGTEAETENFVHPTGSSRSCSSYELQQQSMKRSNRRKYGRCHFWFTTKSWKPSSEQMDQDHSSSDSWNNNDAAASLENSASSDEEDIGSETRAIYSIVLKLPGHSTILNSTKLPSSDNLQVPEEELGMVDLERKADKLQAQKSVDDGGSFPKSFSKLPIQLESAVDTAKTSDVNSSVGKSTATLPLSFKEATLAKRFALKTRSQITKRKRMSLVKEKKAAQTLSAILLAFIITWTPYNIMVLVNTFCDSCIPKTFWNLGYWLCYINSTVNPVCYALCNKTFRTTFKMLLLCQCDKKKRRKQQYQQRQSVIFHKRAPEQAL

As for `CCN(C(=O)C1CCN(S(=O)(=O)c2ccc(OC)cc2)CC1)[C@H](C)c1ccccc1`, the “% ACh max response” value is “inactive”.

Regarding `CCN(Cc1ccccc1)C(=O)C1CCN(S(=O)(=O)c2ccc3c(c2)OCCO3)CC1`, the “% ACh max response” value is “inactive”.

For the compound `CCN(Cc1ccccc1)C(=O)C1CCN(S(=O)(=O)c2ccc(OC)cc2)CC1`, the “% ACh max response” value is “inactive”.

Regarding `CCN(C(=O)C1CCN(S(=O)(=O)c2ccc3[nH]ncc3c2)CC1)[C@H](C)c1ccccc1`, the EC50 was 2170 nM.

Consider `CCN(Cc1ccccc1Cl)C(=O)C1CCN(S(=O)(=O)c2ccc3[nH]ncc3c2)CC1`, for which the EC50 is 520 nM.

On to `CCN(Cc1ccccc1Cl)C(=O)C1CCN(S(=O)(=O)c2ccc3cn[nH]c3c2)CC1`, for which the EC50 was 2890 nM.

With `CCN(Cc1ccccc1C(F)(F)F)C(=O)C1CCN(S(=O)(=O)c2ccc3[nH]ncc3c2)CC1`, the EC50 is 2080 nM.

`CCN(Cc1ccccc1C(F)(F)F)C(=O)C1(F)CCN(S(=O)(=O)c2ccc3[nH]ncc3c2)CC1`: the EC50 was 1770 nM.

Regarding `CCN(Cc1ccccc1C(F)(F)F)C(=O)C1CCN(S(=O)(=O)c2ccc3cn[nH]c3c2)CC1`, the EC50 is 4670 nM.
